Test system: v1O4 and H9 cells
Assay: p53 staining of v1O4 and H9 cells
Type: cell-based, human
Text: Variant neoplastic stem cells (v1O4 cells) and normal H9 stem cells were fixed and stained for p53 expression following treatment with selective-activity compounds.

| SMILES | activation of the p53 stress response (% cells positive for p53) |
| --- | --- |
| OCCN1CCN(CCCN2c3ccccc3Sc3ccc(C(F)(F)F)cc32)CC1 [fluphenazine] | little or no activation of the p53 stress response |
| OCCN1CCN(CCCN2c3ccccc3Sc3ccc(Cl)cc32)CC1 [perphenazine] | little or no activation of the p53 stress response |
| CN1CCN(CCCN2c3ccccc3Sc3ccc(Cl)cc32)CC1 [prochlorperazine] | little or no activation of the p53 stress response |
| CN1CCN(CCCN2c3ccccc3Sc3ccc(C(F)(F)F)cc32)CC1 [trifluoperazine] | little or no activation of the p53 stress response |
| CN(C)CCCN1c2ccccc2Sc2ccc(C(F)(F)F)cc21 [triflupromazine] | little or no activation of the p53 stress response |
